The source of these data is patent US10647713B2 (Nimbus Lakshmi, Inc., priority 2016, dated 2020).

Bounds are passed on as bounds.

In the assay the target is human TYK2 (JH2domain-pseudokinase) (Homo sapiens (Human), UniProt P29597). The assay can be described thus: TYK2 JH2 Domain Binding Assay (KINOMEscan, DiscoveRx). The note with it: 11-point dilution, duplicate. Summed up: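 TYK2 JH2 (G556–D888)–NFkB DBD fusion, DNA-tagged, from HEK293 extracts (<0.1 nM) competed against immobilised biotinylated ligand for 1 h at room temperature, 0.9% DMSO. Bead-retained kinase quantified by qPCR; Kd from 11-point 3-fold series (top 30,000 nM, duplicate), Hill fit with slope −1.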
Sequence of human TYK2 (JH2domain-pseudokinase) (P29597 556-888): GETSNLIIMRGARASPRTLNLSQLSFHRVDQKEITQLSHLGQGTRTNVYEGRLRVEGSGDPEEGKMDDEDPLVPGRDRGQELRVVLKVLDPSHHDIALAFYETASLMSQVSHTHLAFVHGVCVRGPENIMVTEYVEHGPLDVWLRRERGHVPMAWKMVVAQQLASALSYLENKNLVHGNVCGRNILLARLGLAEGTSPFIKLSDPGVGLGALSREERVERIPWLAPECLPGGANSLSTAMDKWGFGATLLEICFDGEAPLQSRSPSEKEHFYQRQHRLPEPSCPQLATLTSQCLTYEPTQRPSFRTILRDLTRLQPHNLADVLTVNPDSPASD
Regarding `Cc1cc(Nc2cc(Nc3ccc(-c4nc(C)cs4)cc3S(C)(=O)=O)c3nc(C(F)F)[nH]c3n2)nc(C)n1` [I-467, 2-(difluoromethyl)-N5-(2,6-dimethylpyrimidin-4-yl)-N7-(2-(methylsulfonyl)-4-(4-methylthiazol-2-yl)phenyl)-3H-imidazo[4,5-b]pyridine-5,7-diamine], the equilibrium dissociation constant (Kd) – broadly, the equilibrium constant for the complex coming apart – fell in the range of 0.1 to 0.5 nM. The molecule `Cc1cc(Nc2cc(Nc3ccc(-c4nc(C)cs4)cc3S(C)(=O)=O)c3nc(C)[nH]c3n2)nc(C)n1` [I-468, N5-(2,6-dimethylpyrimidin-4-yl)-2-methyl-N7-(2-(methylsulfonyl)-4-(4-methylthiazol-2-yl)phenyl)-3H-imidazo[4,5-b]pyridine-5,7-diamine] came in with a Kd of 0.1 to 0.5 nM. For `Cc1cc(Nc2cc(Nc3ccc(-c4nc(C)c(C)s4)cc3S(C)(=O)=O)c3nc(C(F)F)[nH]c3n2)nc(C)n1` [I-469, 2-(difluoromethyl)-N5-(2,6-dimethylpyrimidin-4-yl)-N7-(4-(4,5-dimethylthiazol-2-yl)-2-(methylsulfonyl)phenyl)-3H-imidazo[4,5-b]pyridine-5,7-diamine] the value was 0.5 to 1 nM; for `Cc1cc(Nc2cc(Nc3ccc(-c4nc(C)c(C)s4)cc3S(C)(=O)=O)c3nc(C)[nH]c3n2)nc(C)n1` [I-470, N5-(2,6-dimethylpyrimidin-4-yl)-N7-(4-(4,5-dimethylthiazol-2-yl)-2-(methylsulfonyl)phenyl)-2-methyl-3H-imidazo[4,5-b]pyridine-5,7-diamine], 0.1 to 0.5 nM. The value for `CC1(C)COC(c2ccc(Nc3cc(NC(=O)[C@H]4C[C@H]4F)nc4[nH]c(C(F)F)nc34)c(S(C)(=O)=O)c2)=N1` [I-471, (1R,2R)—N-(2-(difluoromethyl)-7-((4-(4,4-dimethyl-4,5-dihydrooxazol-2-yl)-2-(methylsulfonyl)phenyl)amino)-3H-imidazo[4,5-b]pyridin-5-yl)-2-fluorocyclopropane-1-carboxamide] was 1 to 10 nM; that for `Cc1nc2c(Nc3ccc([C@@H]4CCCO4)cc3S(C)(=O)=O)cc(NC(=O)C3CC3)nc2[nH]1` [I-472, (S)—N-(2-methyl-7-((2-(methylsulfonyl)-4-(tetrahydrofuran-2-yl)phenyl)amino)-3H-imidazo[4,5-b]pyridin-5-yl)cyclopropanecarboxamide] was 0.1 to 0.5 nM; that for `Cc1nc2c(Nc3ccc([C@H]4CCCO4)cc3S(C)(=O)=O)cc(NC(=O)C3CC3)nc2[nH]1` [I-473, (R)—N-(2-methyl-7-((2-(methylsulfonyl)-4-(tetrahydrofuran-2-yl)phenyl)amino)-3H-imidazo[4,5-b]pyridin-5-yl)cyclopropanecarboxamide] was less than 0.1 nM. For `Cc1nc2c(Nc3ccc([C@H]4CCCCO4)cc3S(C)(=O)=O)cc(Nc3cnc(C)c(C)n3)nc2[nH]1` [I-474, (R)—N5-(5,6-dimethylpyrazin-2-yl)-2-methyl-N7-(2-(methylsulfonyl)-4-(tetrahydro-2H-pyran-2-yl)phenyl)-3H-imidazo[4,5-b]pyridine-5,7-diamine] the value was less than 0.1 nM. As to `Cc1nc2c(Nc3ccc([C@@H]4CCCCO4)cc3S(C)(=O)=O)cc(Nc3cnc(C)c(C)n3)nc2[nH]1` [I-475, (S)—N5-(5,6-dimethylpyrazin-2-yl)-2-methyl-N7-(2-(methylsulfonyl)-4-(tetrahydro-2H-pyran-2-yl)phenyl)-3H-imidazo[4,5-b]pyridine-5,7-diamine], the Kd lay in the range of 0.1 to 0.5 nM. The molecule `Cc1csc(-c2ccc(Nc3cc(Nc4cc5n(n4)CCOC5)nc4[nH]c(C(F)F)nc34)c(S(C)(=O)=O)c2)n1` [I-476] registered a dissociation constant (Kd) of 0.1 to 0.5 nM. For `Cc1csc(-c2ccc(Nc3cc(Nc4cc5n(n4)CCOC5)nc4[nH]c(C)nc34)c(S(C)(=O)=O)c2)n1` [I-477, N5-(6,7-dihydro-4H-pyrazolo[5,1-c][1,4]oxazin-2-yl)-2-methyl-N7-(2-(methylsulfonyl)-4-(4-methylthiazol-2-yl)phenyl)-3H-imidazo[4,5-b]pyridine-5,7-diamine] the value was 0.1 to 0.5 nM; for `Cc1nc2c(Nc3ccc(-c4nn(C)cc4C)cc3S(C)(=O)=O)cc(NC(=O)[C@@H]3CC3(C)C)nc2[nH]1` [I-478, (R)—N-(7-((4-(1,4-dimethyl-1H-pyrazol-3-yl)-2-(methylsulfonyl)phenyl)amino)-2-methyl-3H-imidazo[4,5-b]pyridin-5-yl)-2,2-dimethylcyclopropane-1-carboxamide], 1 to 10 nM; for `Cc1nc2c(Nc3ccc(-c4nn(C)cc4C)cc3S(C)(=O)=O)cc(NC(=O)[C@H]3CC3(C)C)nc2[nH]1` [I-479, (S)—N-(7-((4-(1,4-dimethyl-1H-pyrazol-3-yl)-2-(methylsulfonyl)phenyl)amino)-2-methyl-3H-imidazo[4,5-b]pyridin-5-yl)-2,2-dimethylcyclopropane-1-carboxamide], 1 to 10 nM. The value for `Cc1nc(-c2ccc(Nc3cc(Nc4cc5n(n4)CCOC5)nc4[nH]c(C(F)F)nc34)c(S(C)(=O)=O)c2)sc1C` [I-480, 2-(difluoromethyl)-N5-(6,7-dihydro-4H-pyrazolo[5,1-c][1,4]oxazin-2-yl)-N7-(4-(4,5-dimethylthiazol-2-yl)-2-(methylsulfonyl)phenyl)-3H-imidazo[4,5-b]pyridine-5,7-diamine] was 0.1 to 0.5 nM; that for `Cc1nc(-c2ccc(Nc3cc(NC(=O)C4CC4)nc4[nH]c(C(F)F)nc34)c(S(C)(=O)=O)c2)c(C)s1` [I-481, N-(2-(difluoromethyl)-7-((4-(2,5-dimethylthiazol-4-yl)-2-(methylsulfonyl)phenyl)amino)-3H-imidazo[4,5-b]pyridin-5-yl)cyclopropanecarboxamide] was 0.1 to 0.5 nM; that for `CC1(C)CSC(c2ccc(Nc3cc(NC(=O)[C@H]4CC4(F)F)nc4[nH]c(C(F)F)nc34)c(S(C)(=O)=O)c2)=N1` [I-482, (R)—N-(2-(difluoromethyl)-7-((4-(4,4-dimethyl-4,5-dihydrothiazol-2-yl)-2-(methylsulfonyl)phenyl)amino)-3H-imidazo[4,5-b]pyridin-5-yl)-2,2-difluorocyclopropane-1-carboxamide] was 1 to 10 nM. With `CC1(C)CSC(c2ccc(Nc3cc(NC(=O)[C@@H]4CC4(F)F)nc4[nH]c(C(F)F)nc34)c(S(C)(=O)=O)c2)=N1` [I-483, (S)—N-(2-(difluoromethyl)-7-((4-(4,4-dimethyl-4,5-dihydrothiazol-2-yl)-2-(methylsulfonyl)phenyl)amino)-3H-imidazo[4,5-b]pyridin-5-yl)-2,2-difluorocyclopropane-1-carboxamide], the Kd is greater than 10 nM. The value for `Cc1nc2c(Nc3ccc(C4=NC(C)(C)CS4)cc3S(C)(=O)=O)cc(NC(=O)[C@H]3CC3(F)F)nc2[nH]1` [I-484, (R)—N-(7-((4-(4,4-dimethyl-4,5-dihydrothiazol-2-yl)-2-(methylsulfonyl)phenyl)amino)-2-methyl-3H-imidazo[4,5-b]pyridin-5-yl)-2,2-difluorocyclopropane-1-carboxamide] was 1 to 10 nM; that for `Cc1nc2c(Nc3ccc(C4=NC(C)(C)CS4)cc3S(C)(=O)=O)cc(NC(=O)[C@@H]3CC3(F)F)nc2[nH]1` [I-485, (S)—N-(7-((4-(4,4-dimethyl-4,5-dihydrothiazol-2-yl)-2-(methylsulfonyl)phenyl)amino)-2-methyl-3H-imidazo[4,5-b]pyridin-5-yl)-2,2-difluorocyclopropane-1-carboxamide] was greater than 10 nM.
